The values below come from PubChem BioAssay AID330 (DTP/NCI, 2004).

For the assay, the system named is P388 leukemia ip, CD2F1 mice, survival T/C. The assay is described as follows: NCI In Vivo Anticancer Drug Screen. Data for tumor model P388 Leukemia (intraperitoneal) in CD2F1 (CDF1) mice. The following applies: endpoint: median survival time, higher = longer survival. The method, boiled down: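 Mice carrying the transplanted tumor received test compound or vehicle. Survival was recorded in each group, and the value is the treated-group measurement divided by that of the vehicle-treated control group.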

Where [1] appears, read: dose: 60.0 mg/kg/injection, schedule: Q01DX005 (ip), vehicle: Klucel (hydroxypropylcellulose) (HPC).
[2] abbreviates: dose: 120.0 mg/kg/injection, schedule: Q01DX005 (ip), vehicle: Klucel (hydroxypropylcellulose) (HPC).
The mark [3] stands for this setting: dose: 240.0 mg/kg/injection, schedule: Q01DX005 (ip), vehicle: Klucel (hydroxypropylcellulose) (HPC).
[4] abbreviates: dose: 50.0 mg/kg/injection, schedule: Q01DX005 (ip), vehicle: Klucel (hydroxypropylcellulose) (HPC).
Setting [5] is: dose: 200.0 mg/kg/injection, schedule: Q04DX003 (ip), vehicle: saline.
Setting [6] is: dose: 400.0 mg/kg/injection, schedule: Q04DX003 (ip), vehicle: saline.
The mark [7] stands for this setting: dose: 50.0 mg/kg/injection, schedule: Q01DX005 (ip), vehicle: saline with Tween-80.
Setting [8] is: dose: 100.0 mg/kg/injection, schedule: Q01DX001 (ip), vehicle: Klucel (hydroxypropylcellulose) (HPC).
The mark [9] stands for this setting: dose: 200.0 mg/kg/injection, schedule: Q01DX001 (ip), vehicle: Klucel (hydroxypropylcellulose) (HPC).
Where [10] appears, read: dose: 100.0 mg/kg/injection, schedule: Q01DX005 (ip), vehicle: saline with Tween-80.

Molecules are shown by their SMILES. “And” between values parts separate entries of the source, which are not always exact repeats. Identical values can stand only once. Toxic doses and inconclusive results are not listed.

On to `COc1ccc(C2NC(=S)NC(C)=C2C(N)=O)cc1` (centres undefined), for which the T/C reads like this: under setting [1], 101 % of control; under setting [2], 95 % of control; under setting [3], 96 % of control.

Consider `NC1=C(Br)C(=O)c2[nH]c(=O)[nH]c(=O)c2C1=O`, for which the T/C runs as follows: (dose: 6.25 mg/kg/injection, schedule: Q01DX005 (ip), vehicle: Klucel (hydroxypropylcellulose) (HPC)) 98 % of control; (dose: 12.5 mg/kg/injection, schedule: Q01DX005 (ip), vehicle: Klucel (hydroxypropylcellulose) (HPC)) 100 % of control; (dose: 25.0 mg/kg/injection, schedule: Q01DX005 (ip), vehicle: Klucel (hydroxypropylcellulose) (HPC)) 102 % of control; under setting [4], 100 % of control.

For the compound `CCCCCCCCCC(=O)NC(CN1CCOCC1)C(=O)c1ccccc1` (centres undefined), the T/C under setting [5] is 87 % of control and the T/C under setting [6] is 88 % of control.

With `CCOc1c(N=Nc2ccc(O)cc2)c(C)nn1C(=S)SC`, the T/C (dose: 60.0 mg/kg/injection, schedule: Q01DX005 (ip), vehicle: Klucel + Tween-80) is 107 % of control; the T/C (dose: 120.0 mg/kg/injection, schedule: Q01DX005 (ip), vehicle: Klucel + Tween-80) is 104 % of control; the T/C (dose: 240.0 mg/kg/injection, schedule: Q01DX005 (ip), vehicle: Klucel + Tween-80) is 100 % of control.

As to `Cc1nccc2cccc(CNC(C)C)c12`, the T/C runs as follows: (dose: 100.0 mg/kg/injection, schedule: Q01DX001 (ip), vehicle: saline) 103 % of control; (dose: 200.0 mg/kg/injection, schedule: Q01DX001 (ip), vehicle: saline) 100 % of control.

Consider `c1ccc2c(c1)SCC1COCOC21` (centres undefined), for which the T/C was 100 % of control (dose: 100.0 mg/kg/injection, schedule: Q04DX003 (ip), vehicle: saline with Tween-80); 103 % of control (dose: 200.0 mg/kg/injection, schedule: Q04DX003 (ip), vehicle: saline with Tween-80); 98 % of control (dose: 400.0 mg/kg/injection, schedule: Q04DX003 (ip), vehicle: saline with Tween-80).

Regarding `Fc1ccc(N/N=c2\nnc3ccc(F)cc3s2)cc1`, the T/C was 102 % of control (dose: 100.0 mg/kg/injection, schedule: Q04DX002 (ip), vehicle: saline with Tween-80); 95 % of control (dose: 200.0 mg/kg/injection, schedule: Q04DX002 (ip), vehicle: saline with Tween-80); 94 % of control (dose: 400.0 mg/kg/injection, schedule: Q04DX002 (ip), vehicle: saline with Tween-80).

In the case of `CNC(=O)OCc1nc(-c2ccccc2)sc1COC(=O)NC`, the T/C is 94 % of control (dose: 12.5 mg/kg/injection, schedule: Q01DX005 (ip), vehicle: distilled water + Tween-80) and 93 % of control (dose: 25.0 mg/kg/injection, schedule: Q01DX005 (ip), vehicle: distilled water + Tween-80).

As to `CC12CCC3c4ccc(O)cc4CCC3C1CCC2(O)CN1CCCCC1` (centres undefined), the T/C was 96 % of control under setting [4] and 91 % of control (dose: 100.0 mg/kg/injection, schedule: Q01DX005 (ip), vehicle: Klucel (hydroxypropylcellulose) (HPC)).

With `COc1cc(NCCCCCNCC(C)(C)C)c2ncccc2c1`, the T/C is 109 % of control (dose: 12.5 mg/kg/injection, schedule: Q01DX005 (ip), vehicle: saline with Tween-80); 107 % of control (dose: 25.0 mg/kg/injection, schedule: Q01DX005 (ip), vehicle: saline with Tween-80); 91 % of control and 93 % of control under setting [7].

On to `Cc1cc(C)n(C2=NS(=O)(=O)c3ccccc3N2c2ccccc2)n1`, for which the T/C (dose: 100.0 mg/kg/injection, schedule: Q01DX001 (ip), vehicle: saline with Tween-80) was 102 % of control; the T/C (dose: 200.0 mg/kg/injection, schedule: Q01DX001 (ip), vehicle: saline with Tween-80) was 98 % of control; the T/C (dose: 400.0 mg/kg/injection, schedule: Q01DX001 (ip), vehicle: saline with Tween-80) is 97 % of control.

As for `BrCC[N+]12CC[N+](CCBr)(CC1)C2` (tested in a mixture with another compound), the T/C was 107 % of control (dose: 5.0 mg/kg/injection, schedule: Q04DX003 (ip), vehicle: water); 114 % of control (dose: 10.0 mg/kg/injection, schedule: Q04DX003 (ip), vehicle: water); 122 % of control (dose: 20.0 mg/kg/injection, schedule: Q04DX003 (ip), vehicle: distilled water + Tween-80); 100 % of control (dose: 20.0 mg/kg/injection, schedule: Q04DX003 (ip), vehicle: water); 112 % of control (dose: 37.5 mg/kg/injection, schedule: Q04DX003 (ip), vehicle: water); 107 % of control (dose: 40.0 mg/kg/injection, schedule: Q04DX003 (ip), vehicle: distilled water + Tween-80). The T/C (dose: 40.0 mg/kg/injection, schedule: Q04DX003 (ip), vehicle: water) is 104 % of control; the T/C (dose: 80.0 mg/kg/injection, schedule: Q04DX003 (ip), vehicle: distilled water + Tween-80) is 118 % of control; the T/C (dose: 80.0 mg/kg/injection, schedule: Q04DX003 (ip), vehicle: water) was 110 % of control; the T/C (dose: 160.0 mg/kg/injection, schedule: Q04DX003 (ip), vehicle: distilled water + Tween-80) is 116 % of control; the T/C (dose: 160.0 mg/kg/injection, schedule: Q04DX003 (ip), vehicle: water) is 112 % of control.

`CC(OS(C)(=O)=O)/C(Br)=C(/Br)C(C)OS(C)(=O)=O` (centres undefined): the T/C is, setting by setting: under setting [8], 158 % of control; under setting [9], 204 % of control; (dose: 400.0 mg/kg/injection, schedule: Q01DX001 (ip), vehicle: Klucel (hydroxypropylcellulose) (HPC)) 230 % of control.

As for `Cc1ccc(-c2cc(=O)c3cc(C)c(C)c(C#N)c3o2)cc1`, the T/C is 94 % of control (dose: 15.0 mg/kg/injection, schedule: Q01DX005 (ip), vehicle: Klucel (hydroxypropylcellulose) (HPC)); 87 % of control and 90 % of control (dose: 30.0 mg/kg/injection, schedule: Q01DX005 (ip), vehicle: Klucel (hydroxypropylcellulose) (HPC)); 90 % of control under setting [1]; 86 % of control and 88 % of control under setting [2]; 96 % of control under setting [3].

For the compound `Nc1ncc2[nH]c(=O)[nH]c2n1`, the T/C under setting [7] is 101 % of control; the T/C under setting [10] was 100 % of control; the T/C (dose: 200.0 mg/kg/injection, schedule: Q01DX005 (ip), vehicle: saline with Tween-80) is 99 % of control.

On to `C1CCN(P2(N3CCCCC3)=NP(N3CCCCC3)(N3CCCCC3)=NP(N3CCCCC3)(N3CCCCC3)=NP(N3CCCCC3)(N3CCCCC3)=N2)CC1`, for which the T/C under setting [7] is 96 % of control and the T/C under setting [10] was 88 % of control.

Consider `CN(C)Cc1cc2c(=O)[nH]c(N)nc2[nH]1`, for which the T/C by setting is: under setting [8], 101 % of control; under setting [9], 104 % of control.

`C[C@H](N)[C@H](O)c1cccc(O)c1`: the T/C is 103 % of control (dose: 1.5 mg/kg/injection, schedule: Q01DX005 (ip), vehicle: saline); 99 % of control (dose: 3.0 mg/kg/injection, schedule: Q01DX005 (ip), vehicle: saline); 110 % of control (dose: 6.0 mg/kg/injection, schedule: Q01DX005 (ip), vehicle: saline); 115 % of control (dose: 6.25 mg/kg/injection, schedule: Q01DX005 (ip), vehicle: saline); 100 % of control (dose: 25.0 mg/kg/injection, schedule: Q01DX005 (ip), vehicle: saline).

Regarding `COC1(OC)OC(c2ccccc2)=C(c2ccccc2)C(C#N)(C#N)C1(OC)OC`, the T/C is 91 % of control under setting [1], 88 % of control under setting [2] and 94 % of control under setting [3].

In the case of `Cc1ccccc1N1C(=O)C(=O)C(c2nc3ccccc3s2)C(=O)C1=O`, the T/C reads like this: (dose: 60.0 mg/kg/injection, schedule: Q01DX005 (ip), vehicle: saline with Tween-80) 99 % of control; (dose: 120.0 mg/kg/injection, schedule: Q01DX005 (ip), vehicle: saline with Tween-80) 98 % of control; (dose: 240.0 mg/kg/injection, schedule: Q01DX005 (ip), vehicle: saline with Tween-80) 97 % of control.

As for `CC1=CC(=C2C(=O)c3ccccc3C2=O)C=C(C)N1CCN1CCCCC1`, the T/C is, setting by setting: (dose: 50.0 mg/kg/injection, schedule: Q01DX005 (ip), vehicle: saline) 98 % of control; under setting [1], 90 % of control; (dose: 100.0 mg/kg/injection, schedule: Q01DX005 (ip), vehicle: saline) 99 % of control; under setting [2], 95 % of control.

For the compound `CCOC(=O)/C=C(\C)N1CCCCC1`, the T/C by setting is: (dose: 100.0 mg/kg/injection, schedule: Q04DX003 (ip), vehicle: saline) 100 % of control; under setting [5], 100 % of control; under setting [6], 100 % of control.
